Experimental data published in US10556900B2, “TrkA kinase inhibitors, compositions and methods thereof” (Merck Sharp & Dohme Corp., priority 2015, dated 2020).

Target: human TrkA receptor (Homo sapiens (Human), UniProt P04629)
Assay: TrkA functional activity, DiscoverX PathHunter assay (NGF-stimulated U2OS cells)
Type: cell-based
Conditions: U2OS cells expressing human TrkA-Prolink, Shc1-EA and p75NTR; compound 1 h, then NGF (~80% of maximal response) 3 h; luminescence
Method: TrkA functional activity was measured using a DiscoverX PathHunter assay. In this assay, U2OS cells express the human TrkA receptor as a fusion with the weakly complementing fragment of B-galactosidase, which DiscoverX calls “Prolink (PK)”; additionally, Shc1 is fused with a larger fragment, which is called “Enzyme Acceptor (EA)”. Activation of the TrkA receptor, upon NGF addition, results in the kinase domain being phosphorylated, resulting in subsequent recruitment of Shc1-EA protein. That recruitment results in an active B-galactosidase enzyme that is detected by addition of a chemiluminescent substrate. The human p75^NTR protein was also expressed as a co-receptor for NGF.
All reagents were purchased from DiscoverX, except for the receptor agonists (NGF, BDNF, NT3) which were purchased from Peprotech. Cells were expanded and frozen into cryovials, and stored in the vapor phase of liquid nitrogen, and thawed immediately before use. Thawed cells were added to a 384-well plate at 7500 cells/well, and allowed to incubate overnight. Compound at various concentrations was added the following morning and allowed to incubate on cells for 1 h. Then, NGF was added at a concentration sufficient to elicit ˜80% of a maximal response and allowed to incubate for 3 h at ambient temperature. DiscoverX PathHunter detection reagent was then added and the plate was further incubated for 1 h in the dark. The plate was then read via luminescence on the Perkin Elmer Envision.

human TrkA receptor, sequence (P04629 33-796): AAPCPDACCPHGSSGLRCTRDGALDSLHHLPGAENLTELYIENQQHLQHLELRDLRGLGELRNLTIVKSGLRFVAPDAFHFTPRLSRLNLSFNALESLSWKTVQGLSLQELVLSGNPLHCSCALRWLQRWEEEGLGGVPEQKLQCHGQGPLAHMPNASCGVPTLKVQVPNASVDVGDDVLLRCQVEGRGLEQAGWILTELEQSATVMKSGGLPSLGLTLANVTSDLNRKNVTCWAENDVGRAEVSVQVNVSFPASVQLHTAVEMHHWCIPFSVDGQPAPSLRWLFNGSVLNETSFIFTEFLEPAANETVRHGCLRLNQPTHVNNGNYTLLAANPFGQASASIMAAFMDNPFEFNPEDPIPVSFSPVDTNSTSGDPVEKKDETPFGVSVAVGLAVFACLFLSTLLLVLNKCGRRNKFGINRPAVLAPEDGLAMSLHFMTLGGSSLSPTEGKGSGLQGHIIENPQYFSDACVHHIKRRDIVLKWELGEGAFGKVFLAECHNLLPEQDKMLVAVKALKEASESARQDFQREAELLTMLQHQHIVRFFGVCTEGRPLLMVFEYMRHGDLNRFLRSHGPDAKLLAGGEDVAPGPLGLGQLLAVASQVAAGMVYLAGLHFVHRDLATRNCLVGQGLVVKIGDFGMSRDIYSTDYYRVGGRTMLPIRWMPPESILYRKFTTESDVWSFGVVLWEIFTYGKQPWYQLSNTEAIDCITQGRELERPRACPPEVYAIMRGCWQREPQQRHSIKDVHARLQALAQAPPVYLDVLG

Row | SMILES | IC50
1 | Cn1ccc(-c2cc(C(=O)Nc3c(-c4ccccc4)ccc4sc(C(C)(C)O)nc34)ccc2C(F)(F)F)n1 [Compound 4, N-(2-(2-Hydroxypropan-2-yl)-5-phenylbenzo[d]thiazol-4-yl)-3-(1-methyl-1H-pyrazol-3-yl)-4-(trifluoromethyl)benzamide] | 67 nM
2 | Cn1ccc(-c2cc(C(=O)Nc3c(-c4ccccc4)ccn4c(C(N)=O)cnc34)ccc2C(F)(F)F)n1 [Compound 12, 8-({[3-(1-methyl-1H-pyrazol-3-yl)-4-(trifluoromethyl)phenyl]carbonyl}amino)-7-phenylimidazo[1,2-a]pyridine-3-carboxamide] | 5.7 nM
3 | Cn1ccc(-c2cc(C(=O)Nc3c(-c4ccccc4)ccn4c(CO)cnc34)ccc2C(F)(F)F)n1 [Compound 13, N-[3-(hydroxymethyl)-7-phenylimidazo[1,2-a]pyridin-8-yl]-3-(1-methyl-1H-pyrazol-3-yl)-4-(trifluoromethyl)benzamide] | 2.4 nM
4 | Cn1ccc(-c2cc(C(=O)Nc3c(-c4ccccc4)ccn4c(C(C)(C)O)cnc34)c(F)cc2C(F)(F)F)n1 [Compound 16, 2-fluoro-N-[3-(1-hydroxy-1-methylethyl)-7-phenylimidazo[1,2-a]pyridin-8-yl]-5-(1-methyl-1H-pyrazol-3-yl)-4-(trifluoromethyl)benzamide] | 0.2 nM
5 | Cn1ccc(-c2cc(C(=O)Nc3c(-c4ccccc4)ccn4c(C(C)(C)O)cnc34)c(Cl)cc2C(F)(F)F)n1 [Compound 17, 2-chloro-N-[3-(1-hydroxy-1-methylethyl)-7-phenylimidazo[1,2-a]pyridin-8-yl]-5-(1-methyl-1H-pyrazol-3-yl)-4-(trifluoromethyl)benzamide] | 1.1 nM
6 | CC(C)(O)c1cnc2c(NC(=O)c3cc(-c4ccccn4)c(C(F)(F)F)cc3Cl)c(-c3ccccc3)ccn12 [Compound 18, 2-chloro-N-[3-(1-hydroxy-1-methylethyl)-7-phenylimidazo[1,2-a]pyridin-8-yl]-5-pyridin-2-yl-4-(trifluoromethyl)benzamide] | 6.7 nM
7 | Cn1ccc(-c2cc(C(=O)Nc3c(-c4ccccc4)ccn4c(C(N)=O)cnc34)c(F)cc2C(F)(F)F)n1 [Compound 22, 8-({[2-fluoro-5-(1-methyl-1H-pyrazol-3-yl)-4-(trifluoromethyl)phenyl]carbonyl}amino)-7-phenylimidazo[1,2-a]pyridine-3-carboxamide] | 0.51 nM
8 | CC(C)(O)c1cnc2c(NC(=O)c3cc(-c4cc[nH]n4)c(C(F)(F)F)cc3F)c(-c3ccccc3)ccn12 [Compound 31, 2-fluoro-N-[3-(1-hydroxy-1-methylethyl)-7-phenylimidazo[1,2-a]pyridin-8-yl]-5-(1H-pyrazol-3-yl)-4-(trifluoromethyl)benzamide] | 0.94 nM
9 | Cn1ccc(-c2cc(C(=O)Nc3c(-c4ccccc4)ccn4c(C(C)(C)O)cnc34)ccc2C(F)(F)F)n1 [Compound 32, N-[3-(1-hydroxy-1-methylethyl)-7-phenylimidazo[1,2-a]pyridin-8-yl]-3-(1-methyl-1H-pyrazol-3-yl)-4-(trifluoromethyl)benzamide] | 6.2 nM
10 | Cn1ccc(-c2cc(C(=O)Nc3c(-c4ccccc4)ncn4cnnc34)ccc2C(F)(F)F)n1 [Compound 33, 3-(1-methyl-1H-pyrazol-3-yl)-N-(7-phenyl[1,2,4]triazolo[4,3-c]pyrimidin-8-yl)-4-(trifluoromethyl)benzamide] | 6.3 nM
11 | Cn1ccc(-c2cc(C(=O)Nc3c(-c4ccccc4)ccn4ccnc34)ccc2C(F)(F)F)n1 [Compound 34, 3-(1-Methyl-1H-pyrazol-3-yl)-N-(7-phenylimidazo[1,2-a]pyridin-8-yl)-4-(trifluoromethyl)benzamide] | 53 nM
12 | Cn1ccc(-c2cc(C(=O)Nc3c(-c4ccccc4)ccc4cc(C(C)(C)O)[nH]c34)ccc2C(F)(F)F)n1 [Compound 42, N-(2-(2-Hydroxypropan-2-yl)-6-phenyl-1H-indol-7-yl)-3-(1-methyl-1H-pyrazol-3-yl)-4-(trifluoromethyl)benzamide] | 0.66 nM
13 | CC(=O)c1c[nH]c2c(NC(=O)c3ccc(C(F)(F)F)c(-c4ccn(C)n4)c3)c(-c3ccccc3)ccc12 [Compound 43, N-(3-Acetyl-6-phenyl-1H-indol-7-yl)-3-(1-methyl-1H-pyrazol-3-yl)-4-(trifluoromethyl)benzamide] | 5 nM

More lines, now with the values ahead:

Row | IC50 | SMILES
14 | 2.1 nM | NC(=O)c1cnc2c(NC(=O)c3cc(-c4ncccn4)c(C(F)(F)F)cc3F)c(-c3ccccc3)ccn12 [Compound 7, 8-(2-Fluoro-5-(pyrimidin-2-yl)-4-(trifluoromethyl)benzamido)-7-phenylimidazo[1,2-a]pyridine-3-carboxamide]
15 | 6.2 nM | O=C(Nc1c(-c2ccccc2)ccn2c(CO)cnc12)c1cc(-c2ncccn2)c(C(F)(F)F)cc1F [Compound 8, 2-Fluoro-N-(3-(hydroxymethyl)-7-phenylimidazo[1,2-a]pyridin-8-yl)-5-(pyrimidin-2-yl)-4-(trifluoromethyl)benzamide]
16 | 4 nM | CC(C)(O)c1cnc2c(NC(=O)c3cc(-c4ncccn4)c(C(F)(F)F)cc3F)c(-c3ccccc3)ccn12 [Compound 11, 2-Fluoro-N-(3-(2-hydroxypropan-2-yl)-7-phenylimidazo[1,2-a]pyridin-8-yl)-5-(pyrimidin-2-yl)-4-(trifluoromethyl)benzamide]
17 | 1.9 nM | CC(C)(O)c1cnc2c(NC(=O)c3cc(-c4ccccn4)c(C(F)(F)F)cc3F)c(-c3ccccc3)ccn12 [Compound 19, 2-fluoro-N-[3-(1-hydroxy-1-methylethyl)-7-phenylimidazo[1,2-a]pyridin-8-yl]-5-pyridin-2-yl-4-(trifluoromethyl)benzamide]
18 | 16 nM | CC(C)(O)c1cnc2c(NC(=O)c3cc(-c4ncccn4)c(C(F)(F)F)cc3Cl)c(-c3ccccc3)ccn12 [Compound 20, 2-chloro-N-[3-(1-hydroxy-1-methylethyl)-7-phenylimidazo[1,2-a]pyridin-8-yl]-5-pyrimidin-2-yl-4-(trifluoromethyl)benzamide]
19 | 3.7 nM | NC(=O)c1cnc2c(NC(=O)c3cc(-c4ccccn4)c(C(F)(F)F)cc3F)c(-c3ccccc3)ccn12 [Compound 21, 8-({[2-fluoro-5-pyridin-2-yl-4-(trifluoromethyl)phenyl]carbonyl}amino)-7-phenylimidazo[1,2-a]pyridine-3-carboxamide]
20 | 0.52 nM | Cn1ccc(-c2cc(C(=O)Nc3c(-c4ccccc4)ccn4c(CO)cnc34)c(F)cc2C(F)(F)F)n1 [Compound 23, 2-fluoro-N-[3-(hydroxymethyl)-7-phenylimidazo[1,2-a]pyridin-8-yl]-5-(1-methyl-1H-pyrazol-3-yl)-4-(trifluoromethyl)benzamide]
21 | 2.5 nM | O=C(Nc1c(-c2ccccc2)ccn2c(CO)cnc12)c1cc(-c2ccccn2)c(C(F)(F)F)cc1F [Compound 24, 2-fluoro-N-[3-(hydroxymethyl)-7-phenylimidazo[1,2-a]pyridin-8-yl]-5-pyridin-2-yl-4-(trifluoromethyl)benzamide]
22 | 4.4 nM | [2H]C([2H])(O)c1cnc2c(NC(=O)c3cc(-c4ncccn4)c(C(F)(F)F)cc3F)c(-c3ccccc3)ccn12 [Compound 35, 2-Fluoro-N-(3-(hydroxymethyl-d2)-7-phenylimidazo[r 12-a]pyridin-8-yl)-5-(pyrimidin-2-yl)-4-(trifluoromethyl)benzamide]
23 | 0.4 nM | Cn1ccc(-c2cc(C(=O)Nc3c(-c4ccccc4)ccc4c(C(C)(C)O)cnn34)c(F)cc2C(F)(F)F)n1 [Compound 36, 2-Fluoro-N-(3-(2-hydroxypropan-2-yl)-6-phenylpyrazolo[1,5-a]pyridin-7-yl)-5-(1-methyl-1H-pyrazol-3-yl)-4-(trifluoromethyl)benzamide]
24 | 4.5 nM | Cn1ccc(-c2cc(C(=O)Nc3c(-c4ccccc4)ccc4c(C(C)(C)O)cnn34)ccc2C(F)(F)F)n1 [Compound 37, N-[3-(1-hydroxy-1-methylethyl)-6-phenylpyrazolo[1,5-a]pyridin-7-yl]-3-(1-methyl-1H-pyrazol-3-yl)-4-(trifluoromethyl)benzamide]
25 | 1.8 nM | CC(C)(O)c1cnn2c(NC(=O)c3cc(-c4ncccn4)c(C(F)(F)F)cc3F)c(-c3ccccc3)ccc12 [Compound 38, 2-fluoro-N-[3-(1-hydroxy-1-methylethyl)-6-phenylpyrazolo[1,5-a]pyridin-7-yl]-5-pyrimidin-2-yl-4-(trifluoromethyl)benzamide]
26 | 0.33 nM | Cn1ccc(-c2cc(C(=O)Nc3c(-c4ccccc4)ccc4c(CO)cnn34)c(F)cc2C(F)(F)F)n1 [Compound 39, 2-fluoro-N-[3-(hydroxymethyl)-6-phenylpyrazolo[1,5-a]pyridin-7-yl]-5-(1-methyl-1H-pyrazol-3-yl)-4-(trifluoromethyl)benzamide]
27 | 1.4 nM | Cn1ccc(-c2cc(C(=O)Nc3c(-c4ccccc4)ccc4c(CO)cnn34)ccc2C(F)(F)F)n1 [Compound 40, N-[3-(hydroxymethyl)-6-phenylpyrazolo[1,5-a]pyridin-7-yl]-3-(1-methyl-1H-pyrazol-3-yl)-4-(trifluoromethyl)benzamide]
28 | 2.1 nM | O=C(Nc1c(-c2ccccc2)ccc2c(CO)cnn12)c1cc(-c2ncccn2)c(C(F)(F)F)cc1F [Compound 41, 2-fluoro-N-[3-(hydroxymethyl)-6-phenylpyrazolo[1,5-a]pyridin-7-yl]-5-pyrimidin-2-yl-4-(trifluoromethyl)benzamide]
